The record followed here is PubChem BioAssay (NCI).

The TGI is the concentration giving total growth inhibition. Broadly, the GI50 is the concentration at which growth is held to half of that of the control.

Test systems include DLD-1 colon; DMS 114 small cell lung; DMS 273 small cell lung; KM20L2 colon; LXFL 529 NSCLC; RXF-631 renal; SNB-78 CNS; MDA-N; XF 498 CNS.
Holding throughout (assay): DTP human tumour cell line panel, 48 h

Several values for one entry are separate records, joined by “and”; a condition that tells them apart may be missing. Equal entries are not always repeated.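 Cultured in 96-well plates, cells were exposed to test compound for 48 hours across five concentrations. GI50 is the concentration that inhibits growth by half. TGI: total growth inhibition.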

As for `CN1C(c2ccccc2)CC(C)(O)CC1c1ccccc1` (stereo unspecified), the TGI in the assay with DLD-1 colon, with DMS 114 small cell lung, with DMS 273 small cell lung, in the assay with KM20L2 colon, with LXFL 529 NSCLC and in the assay on RXF-631 renal was > 100 µM in each case. In the assay with SNB-78 CNS, the TGI is > 100 µM.

Turning to `NC(CP(=O)(O)O)C(=O)O` (stereo unspecified), the TGI with MDA-N is > 100 µM.

With `CCOC(=O)C1=C(C)NC(C)=C(C(=O)OCCNC(=O)c2ccc(N=[N+]=[N-])cc2)C1c1ccccc1C(F)(F)F` (stereo unspecified), the TGI in the assay on MDA-N is 21.5 µM.

With `C=C[C@H]1CN2CCc3c([nH]c4c([C@@H]5CCCN5C)c(O)ccc34)[C@@H]2C[C@@H]1C[C@H]1c2[nH]c3ccccc3c2CCN1C`, in the assay with MDA-N, the GI50 was 1500 nM; the TGI is 3.06 µM and 3.3 µM.

Regarding `CCC(C)C(=O)O[C@H]1C(=O)O[C@@H]2C[C@H]3C(C)=CC(=O)[C@@H](O)[C@]3(C)[C@H]3[C@@H](O)[C@H](O)[C@@]4(C)OC[C@]32[C@@H]14` (stereo partly specified), the TGI amounted to 0.317 µM in the assay on DLD-1 colon; 0.0431 µM with DMS 114 small cell lung; 0.0468 µM in the assay on DMS 273 small cell lung; 0.31 µM in the assay with KM20L2 colon; 0.123 µM in the assay on LXFL 529 NSCLC; 0.0543 µM in the assay with MDA-N. Further, the concentration for total growth inhibition (TGI) amounted to 0.394 µM in the assay on SNB-78 CNS and 0.0819 µM with XF 498 CNS.

Consider `COc1ccc(NC(=S)C#N)cc1`, for which the total growth inhibition concentration (TGI) in the assay on MDA-N was > 100 µM.

Take `Cc1cc(Cl)ccc1NC(=O)CC1SC(=NC(=O)c2ccccc2Cl)NC1=O` (stereo unspecified): the TGI is 34 µM with DLD-1 colon; 41.8 µM in the assay on DMS 114 small cell lung; 37 µM in the assay with DMS 273 small cell lung; > 100 µM in the assay with KM20L2 colon; 32.3 µM with LXFL 529 NSCLC; 50.9 µM in the assay on SNB-78 CNS. In the assay with XF 498 CNS, the TGI was found to be 32.7 µM.

With `N#CC(C(=O)/C(=N/NC(=O)c1ccccc1O)C(C#N)c1ccc(Br)cc1)c1ccc(Br)cc1` (stereo unspecified), the TGI with DLD-1 colon turned out to be 25.6 µM; with DMS 114 small cell lung, 33 µM; with DMS 273 small cell lung it was 26.8 µM; with KM20L2 colon it was 29.2 µM; in the assay on LXFL 529 NSCLC it was 13.4 µM; with RXF-631 renal it was 28.5 µM. Besides, the figures for the TGI with SNB-78 CNS and in the assay with XF 498 CNS were 25.5 µM and 26.6 µM, respectively.

Turning to `CC1NC(C(=O)O)Cc2cc(O)c(O)cc21` (stereo unspecified), in the assay with MDA-N, the TGI is > 100 µM.

Turning to `N#CCCN(C1=NN(C(=O)CC(=O)Nc2ccc(Cl)cc2)C(c2ccccc2)C1)c1ccc(Cl)cc1` (stereo unspecified), the TGI in the assay with DLD-1 colon, with DMS 114 small cell lung, in the assay on DMS 273 small cell lung, in the assay on KM20L2 colon, in the assay on LXFL 529 NSCLC and in the assay with RXF-631 renal was > 100 µM in each case. The total growth inhibition concentration (TGI) with SNB-78 CNS and in the assay with XF 498 CNS was > 100 µM each time.

Regarding `CC(=O)n1nnc2ccc([N+](=O)[O-])cc21`, the TGI with DLD-1 colon, in the assay on DMS 114 small cell lung, with DMS 273 small cell lung, in the assay with KM20L2 colon, in the assay on LXFL 529 NSCLC and in the assay on SNB-78 CNS was > 100 µM in each case. In addition, the TGI in the assay on XF 498 CNS was > 100 µM.

For `CC(=O)NC(CS)C(=O)O` (stereo unspecified), the concentration for total growth inhibition (TGI) in the assay on MDA-N is > 100 µM.

Turning to `N#CC(C#N)=Cc1ccc(C(O)P(=O)(O)O)cc1` (stereo unspecified), the TGI with DLD-1 colon, with DMS 114 small cell lung, in the assay with DMS 273 small cell lung, in the assay with KM20L2 colon, in the assay on LXFL 529 NSCLC and in the assay with RXF-631 renal was > 100 µM each time. In addition, the TGI with SNB-78 CNS and with XF 498 CNS was > 100 µM throughout.

As to `O=CC1CCC=CC1NC(=O)OCc1ccccc1` (stereo unspecified), the TGI with DLD-1 colon was > 100 µM; in the assay with DMS 114 small cell lung it was 53.6 µM; in the assay with DMS 273 small cell lung, > 100 µM; with LXFL 529 NSCLC it was > 100 µM; in the assay on SNB-78 CNS it was > 100 µM; in the assay with XF 498 CNS, > 100 µM.

On to `Cn1cnc([N+](=O)[O-])c1Sc1nc2ccccc2o1`, for which the TGI in the assay with DLD-1 colon came to 16.6 µM; in the assay on DMS 114 small cell lung it was 4.89 µM; in the assay with DMS 273 small cell lung, 9.93 µM; in the assay on KM20L2 colon it was 10.1 µM; in the assay with LXFL 529 NSCLC, 12.9 µM; in the assay with RXF-631 renal it was 15.1 µM. Also, the TGI was 32.3 µM in the assay with SNB-78 CNS and 19.7 µM in the assay on XF 498 CNS.

Consider `Cc1ccc(C(=O)C(c2nc3n(c2O)C(=N)N=N3)c2nc3n(c2O)C(=N)N=N3)cc1` (stereo unspecified), for which the TGI in the assay with DLD-1 colon, with DMS 114 small cell lung, with DMS 273 small cell lung, in the assay with KM20L2 colon, in the assay with LXFL 529 NSCLC and in the assay on SNB-78 CNS was > 100 µM throughout. For the same compound, the concentration for total growth inhibition (TGI) with XF 498 CNS is > 100 µM.

Consider `O=C1CC(C(=O)O)Cc2c(Br)ccc(O)c21` (stereo unspecified), for which the concentration for total growth inhibition (TGI) in the assay on MDA-N was > 100 µM.

On to `Cc1ccccc1C=NC12CC3CC(CC(C3)C1)C2`, for which the TGI in the assay on DLD-1 colon, with DMS 114 small cell lung, with DMS 273 small cell lung, in the assay with KM20L2 colon, in the assay on LXFL 529 NSCLC and in the assay on RXF-631 renal was > 100 µM in each case. In addition, the TGI in the assay on SNB-78 CNS is > 100 µM.

Regarding `CC12CC/C(=N/NC(N)=O)C3C1CCCC32`, the total growth inhibition concentration (TGI) with DLD-1 colon, in the assay on DMS 114 small cell lung, in the assay on DMS 273 small cell lung, in the assay with KM20L2 colon, with LXFL 529 NSCLC and in the assay on RXF-631 renal was > 100 µM each time.

For `CCc1cccc(C)c1N1C(=O)C(=O)C(c2nc3ccccc3o2)/C(=N/NC(=S)NN)C1=O` (stereo unspecified), the TGI in the assay on DLD-1 colon, in the assay on DMS 114 small cell lung, in the assay with DMS 273 small cell lung, with KM20L2 colon, in the assay on LXFL 529 NSCLC and with RXF-631 renal was > 100 µM in each case. The concentration for total growth inhibition (TGI) with SNB-78 CNS and with XF 498 CNS was > 100 µM throughout.

With `N#CC(C(=O)CCC(=O)Nc1ccc(Cl)cc1)c1ccc(Cl)cc1` (stereo unspecified), the TGI in the assay on DLD-1 colon, with DMS 114 small cell lung, in the assay on DMS 273 small cell lung, in the assay with KM20L2 colon, with LXFL 529 NSCLC and in the assay with RXF-631 renal was > 100 µM each time. In addition, the concentration for total growth inhibition (TGI) with SNB-78 CNS and in the assay on XF 498 CNS was > 100 µM each time.
